From ChEMBL document CHEMBL1201862, “PubChem BioAssay data set” (2004) come the findings set out here.

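All cell lines were grown in 96-well plates and treated with compound for 48 hours. At the GI50, growth is halved.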 Active and inactive are the calls of the source. No stated cut-off is given here; in the data, active = GI50 up to about 1.1 µM and inactive = higher.

What all share (assay): NCI tumour cell line growth inhibition, 48 h
The test system of test [1] is HL-60.
The test system of test [2] is UO-31.
Test [3] has as its system NCI-H460.
In test [4] the test system is NCI/ADR-RES.
For test [5], the system named is A549.
Test [6] relates to RPMI-8226.
The subject of test [7] is SW-620.
Test [8] deals with SF-295.
Test [9] deals with MCF7.
Test [10] concerns LOX IMVI.
Test [11] deals with NCI-H226.
Test [12] relates to U-251.
The test system of test [13] is SK-MEL-5.
For test [14], the system named is IGROV-1.
Test [15] deals with SF-268.
In test [16] the test system is PC-3.
For test [17], the system named is HCC 2998.
Test [18] concerns SN12C.

`CCOC(=O)Cc1csc(N/C=C2/C(=O)Oc3ccccc3C2=O)n1`: the GI50 in test [1] is 0.083 µM (active); in [2] it was 14.9 µM (inactive); in test [3] it was 45.4 µM (inactive); in [4] it was 17.7 µM (inactive); in test [5], 34.2 µM (inactive); in test [6] it was 18.6 µM (inactive). Also, the GI50 is 21.6 µM (inactive) in [7]; 20.9 µM (inactive) in test [8]; 40.8 µM (inactive) in [9]; 25.6 µM (inactive) in test [10]; 22.6 µM (inactive) in [11]; 20 µM (inactive) in test [12]. For the same compound, the GI50 was 17.3 µM (inactive) in test [13], 19.1 µM (inactive) in test [14], 24.8 µM (inactive) in test [15] and 32.2 µM (inactive) in test [16].

With `O=C1C(c2ccc(Cl)cc2)=[N+]([O-])c2ccccc21`, the GI50 in test [1] is 3.3 µM (inactive); in test [2], > 100 µM (inactive); in test [3], 18.8 µM (inactive); in [5], 17.5 µM (inactive); in [6] it was 14.9 µM (inactive); in test [7], 39.7 µM (inactive). Moreover, the GI50 is 12.1 µM (inactive) in test [8]; > 100 µM (inactive) in [17]; 14 µM (inactive) in [10]; 19.1 µM (inactive) in test [11]; 16.7 µM (inactive) in [12]; 13.6 µM (inactive) in [13]. Moreover, the figures for the GI50 in test [18], in test [14] and in test [15] were 18.1 µM (inactive), 18.1 µM (inactive) and 15.4 µM (inactive), respectively.

Consider `O=[N+]([O-])c1ccc(-c2ccc(C3=Nn4c(nnc4-c4ccc(Cl)cc4)SC3)o2)cc1`, for which the GI50 in test [1] is > 59 µM (inactive); in test [2] it was > 100 µM (inactive); in test [3] it was > 73.3 µM (inactive); in test [5], 47.1 µM (inactive); in [6], > 100 µM (inactive); in [7], > 100 µM (inactive). In addition, the GI50 was 26.5 µM (inactive) in test [8]; > 100 µM (inactive) in test [17]; > 100 µM (inactive) in test [10]; > 100 µM (inactive) in [11]; 37.1 µM (inactive) in [12]; > 100 µM (inactive) in test [13]. The GI50 in test [18] is 97.9 µM (inactive); in [14], 56 µM (inactive); in test [15], > 100 µM (inactive).

`Cc1ccc(/C=C/C(=O)c2sc(-c3nc(C)c(C(=O)/C=C/c4ccc(C)cc4)s3)nc2C)cc1`: the GI50 in test [1], in [2], in [3], in test [5], in test [6] and in test [7] was > 100 µM (inactive) each time. Besides, the GI50 in test [8], in test [17], in [10], in [11], in test [12] and in [13] was > 100 µM (inactive) throughout. Besides, the GI50 in test [18], in test [14] and in test [15] was > 100 µM (inactive) in each case.

As for `CN(CCO)c1nc(N)cc(=O)[nH]1`, the GI50 in test [1], in test [2], in [3], in [5], in [6] and in test [7] was > 100 µM (inactive) throughout. Besides, the GI50 in test [8], in test [17], in test [10], in test [11], in [12] and in [13] was > 100 µM (inactive) throughout. For the same compound, the GI50 in [18], in test [14] and in [15] was > 100 µM (inactive) throughout.

In the case of `O=C1Cc2ccccc2CCc2ccccc21`, the GI50 was > 100 µM (inactive) in [1]; 45.4 µM (inactive) in [2]; > 100 µM (inactive) in test [3]; > 100 µM (inactive) in [5]; 82.4 µM (inactive) in test [6]; > 100 µM (inactive) in test [7]. Besides, the GI50 was 83 µM (inactive) in test [8]; > 100 µM (inactive) in test [17]; > 100 µM (inactive) in test [10]; > 100 µM (inactive) in test [11]; > 100 µM (inactive) in test [12]; > 100 µM (inactive) in test [13]. Besides, the GI50 in [18], in test [14] and in test [15] was > 100 µM (inactive) in each case.

As for `CCOC(=O)C1=C(O)C(=O)c2c(OC)ccc(OC)c2C1=O`, the GI50 in test [1], in [2], in test [3], in test [5], in [6] and in test [7] was > 100 µM (inactive) throughout. For the same compound, the GI50 in test [8], in test [17], in test [10], in test [11], in test [12] and in test [13] was > 100 µM (inactive) each time. Also, the GI50 in [18], in test [14] and in test [15] was > 100 µM (inactive) in each case.

`NNC(=O)CCC(=O)Nc1cc(Cl)c(Cl)cc1Cl`: the GI50 in test [1], in test [2], in [3], in test [5], in test [6] and in test [7] was > 100 µM (inactive) each time. Besides, the GI50 in [8], in test [17], in test [10], in test [11], in test [12] and in [13] was > 100 µM (inactive) throughout. In addition, the GI50 in test [18], in test [14] and in test [15] was > 100 µM (inactive) each time.

In the case of `O=C(c1nc2ccccc2nc1O)C(O)c1ccccc1` (stereo unspecified), the GI50 is 61.7 µM (inactive) in test [1]; 94.8 µM (inactive) in test [2]; > 100 µM (inactive) in [3]; 70.3 µM (inactive) in [5]; 53.5 µM (inactive) in [6]; 86.9 µM (inactive) in test [7]. The GI50 in [8] was > 100 µM (inactive); in test [17] it was 53.7 µM (inactive); in [10], 39.5 µM (inactive); in test [11], 76.7 µM (inactive); in test [12] it was 43.7 µM (inactive); in [13], > 100 µM (inactive). Moreover, the GI50 in test [18] is > 100 µM (inactive); in test [14] it was > 100 µM (inactive); in [15], 86.7 µM (inactive).

As for `Oc1ccc(-c2c3ccccc3c(-c3ccc(O)cc3)c3ccccc23)cc1`, the GI50 in [1] is > 100 µM (inactive); in [2], > 100 µM (inactive); in [3] it was > 100 µM (inactive); in [5], > 100 µM (inactive); in [6] it was 75.2 µM (inactive); in test [7], > 100 µM (inactive). Further, the GI50 is 84.1 µM (inactive) in test [8]; > 100 µM (inactive) in test [17]; 60.5 µM (inactive) in test [10]; > 100 µM (inactive) in test [11]; > 100 µM (inactive) in test [12]; > 100 µM (inactive) in test [13]. Further, the GI50 in test [18], in [14] and in test [15] was > 100 µM (inactive) each time.

For `CC1=C(NC(=O)/C(=N/NC(=S)NN)C2C(=O)CC(C)(C)CC2=O)C(=O)c2ccccc2C1=O`, the GI50 in [1] was 3.41 µM (inactive); in test [2], 12.8 µM (inactive); in [3], 17.7 µM (inactive); in [5], 9.4 µM (inactive); in test [6] it was 10.6 µM (inactive); in [7], 8.49 µM (inactive). In addition, the GI50 in test [8] is 13.7 µM (inactive); in [17], 10.8 µM (inactive); in test [10], 3.34 µM (inactive); in [11] it was 14 µM (inactive); in test [12] it was 3.91 µM (inactive); in [13], 2.15 µM (inactive). Moreover, the GI50 was 7.4 µM (inactive) in test [18], 5.21 µM (inactive) in test [14] and 8.18 µM (inactive) in test [15].

Turning to `Cc1ccc(NC(=O)CC2C(=O)Nc3ccccc3S2(=O)=O)c(C)c1` (stereo unspecified), the GI50 is 2.77 µM (inactive) in [1]; 18.8 µM (inactive) in [2]; 16 µM (inactive) in test [3]; 18.7 µM (inactive) in test [5]; 15.2 µM (inactive) in test [6]; 5.21 µM (inactive) in [7]. Also, the GI50 in test [8] is 25.5 µM (inactive); in test [17], 13.4 µM (inactive); in [10], 15 µM (inactive); in test [11], 17 µM (inactive); in test [12] it was 12.7 µM (inactive); in test [13], 4.78 µM (inactive). For the same compound, the figures for the GI50 in [18], in test [14] and in test [15] were 18.6 µM (inactive), 12.4 µM (inactive) and 20.3 µM (inactive), respectively.

As to `CCOC(=O)NC(=O)c1cn(-c2ccc(CCOC(=O)CCCCCCCCC(=O)OCCc3ccc(-n4cc(C(=O)NC(=O)OCC)c(=O)[nH]c4=O)cc3)cc2)c(=O)[nH]c1=O`, the GI50 in [1], in [2], in test [3], in [5], in test [6] and in [7] was > 100 µM (inactive) each time. Also, the GI50 in test [8] was > 100 µM (inactive); in [17], > 100 µM (inactive); in test [10], > 100 µM (inactive); in test [11], > 100 µM (inactive); in test [12], 49.9 µM (inactive); in [13], > 100 µM (inactive). For the same compound, the GI50 in test [18] was > 100 µM (inactive); in test [14] it was 76.4 µM (inactive); in test [15], > 100 µM (inactive).
